From patent US20110212235A1, “ANTIMICROBIAL SALT SOLUTIONS FOR CHEESE PROCESSING APPLICATIONS” (priority 2006, published 2011)

Key:
Format in all cases: cell-based
[1] = tested on: wild type coliforms from cheese plant brine; assay: Coliforms procedure in cheese brine or buffered solution; conditions: after 4 hours in mozzarella cheese brine
[2] = tested on: yeast cocktail (Raised, Rough and Flat white yeast and a pink yeast); assay: “Yeast” procedure, yeast cocktail
Source text: In the present example, cultures of various microorganisms native to actual process brines used in cheese manufacture were obtained from a cheese plant. […] Organism cultures included four different types of yeast (three distinct while yeast cultures and a pink yeast), a black mold culture, a coliform culture, a culture of mixed green mold and yeast that were not separated, and a culture that was identified by the cheese plant as heterofermentative lactic acid bacteria, although no actual identification of the strain was carried out.
(§1) “Yeast” Procedure: • 1. Inoculate a separate tube containing 10 ml of Brain Heart Infusion (BHI) broth for each wild type (Raised, Rough and Flat white yeast along with a single pink yeast). Incubate for 5 days at 26° C.+/−2° C. • 2. Assume growth to be 10^7 cfu/ml. Since 4 cultures are being used, combine 2.75 ml of each culture added to 99 ml of cold Butterfield's Phosphate Buffered Water (PBW) to obtain 10^6 cfu/ml of yeast cocktail. • 3. Plate serial dilutions of the culture to get the starting count of the inoculum on Dichloran-Rose Bengal-Chloramphenicol Agar (DRBC). • 4. Add 1 ml of the diluted cocktail to 100 ml of cold test solution. • 5. Determine the population at time 0 and 4 hours. Spread plate serial dilutions to DRBC agar. • 6. Incubate the test solutions at 10° C.+/−2° C. for the duration of the experiment. • 7. Incubate the plates at 20° C.+/−2° C. for 5 days+/−2 hours. • 8. Count representative colonies and multiply by the dilution factor. Note: Each test solution should contain ˜10^4 cfu/ml.
(§2) The brines were treated with different concentrations of octanoic acid and then challenged with a yeast cocktail (which included the pink and 3 different white mold types), the green mold+yeast combination, and coliforms.

[3] = tested on: White Yeast; assay: Yeast challenge, white yeast
Procedure: as §1
(§3) In order to determine if the effect of the additive was repeatable, more challenge tests were run on samples of process brine. […] In this test the solutions were challenged with two distinct yeast (a white and a pink) types and coliforms from the samples sent by the cheese plant.

[4] = tested on: heterofermentative lactic acid bacteria (not identified); assay: “Lactic Bacteria” procedure in cheese brine; conditions: after 4 hours in blue cheese brine; Table 20; inoculum 1.2 × 10^7 (est)
Procedure: (§4) In the present example, cultures of various microorganisms native to actual process brines used in cheese manufacture were obtained from a cheese plant. The cultures of yeast, mold, and coliforms were grown and used to test the efficacy of various antimicrobial additives in blue cheese brines. Organism cultures included four different types of yeast (three distinct while yeast cultures and a pink yeast), a black mold culture, a coliform culture, a culture of mixed green mold and yeast that were not separated, and a culture that was identified by the cheese plant as heterofermentative lactic acid bacteria, although no actual identification of the strain was carried out.
“Lactic Bacteria” Procedure: • 1. Inoculate a separate tube containing 10 ml of Brain Heart Infusion (BHI) broth for each wild type tactics 1 and 2. Incubate for 72+/−2 hours at 30° C.+/−2° C. • 2. Assume growth to be 10^9 cfu/ml. Since two cultures are being used, combine 5.5 ml of each culture added to 99 ml of cold Butterfield's Phosphate Buffered Water (PBW) to obtain 10^8 cfu/ml. • 3. Plate serial dilutions of the culture to get the starting count of the inoculum on Lactobacilli MRS Agar (MRSA). • 4. Add 1 ml of the diluted cocktail to 100 ml of cold test solution. • 5. Determine the population at time 0 and 4 hours. Plate serial dilutions using MRSA spread plates. • 6. Incubate the test solutions at 10° C.+/−2° C. for the duration of the experiment. • 7. Incubate the plates at 30° C.+/−2° C. for 72+/−2 hours. • 8. Count representative colonies and multiply by the dilution factor. Note: Each test solution should contain ˜10^8 cfu/ml.
In this experiment solutions were challenged with cultures of the black mold, the green mold/yeast combination, and the bacteria thought to be “lactic acid” bacteria. In this experiment, a brine control with no additive was neglected, but the data still indicate the strong effectiveness of the octanoic acid against yeast and mold.

[5] = tested on: Pink Yeast; assay: Yeast challenge, pink yeast
Procedure: as §1, §3

[6] = tested on: green mold/white yeast mixture; assay: “Mold” procedure, green mold/white yeast mixture; conditions: for Green Mold + Yeast count: after 4 hours in blue cheese brine, Table 20, inoculum 5.8 × 10^6 (est)
Procedure: as §4
(§5) “Mold” Procedure: • 1. From refrigerated stock mold cultures, take 1 ml from black mold dilution bottle added to 99 ml of cold Butterfield's Phosphate Buffered Water (PBW) to obtain 10^5 cfu/ml. • 2. Take 1 ml from green mold/white yeast mixture dilution bottle added to 99 ml of cold Butterfield's Phosphate Buffered Water (PBW) to obtain 10^6 cfu/ml. • 3. Plate serial dilutions of the cultures to get the starting count of the inoculum on Dichloran-Rose Bengal-Chloramphenicol Agar (DRBC). • 4. Add 1 ml of the diluted mold culture to 100 ml of cold test solution (do separately for each of the two mold cultures). • 5. Determine the population at time 0 and 4 hours. Spread plate serial dilutions to DRBC agar. • 6. Incubate the test solutions at 10° C.+/−2° C. for the duration of the experiment. • 7. Incubate the plates at 20° C.+/−2° C. for 5 days+/−2 hours. • 8. Count representative colonies and multiply by the dilution factor. Note: For black mold, each test solution should contain ˜10^3 cfu/ml. For green mold/white yeast mixture, each test solution should contain ˜10^4 cfu/ml.
Screening tests identified octanoic acid as a promising antimicrobial additive for salt brines. Table 16 gives results of a challenge test run on actual blue cheese and mozzarella process brine samples sent from a cheese plant. The brines were treated with different concentrations of octanoic acid and then challenged with a yeast cocktail (which included the pink and 3 different white mold types), the green mold+yeast combination, and coliforms. […] The plate counts listed parenthetically as (est) were too numerous to count and were estimated.

[7] = tested on: wild type coliforms from cheese plant brine; assay: Coliforms procedure in cheese brine or buffered solution; conditions: for Coliforms count: Table 21 (sodium octanoate experiment)
Procedure: as §4
Coliforms Procedure: • 1. Inoculate a separate tube containing 10 ml of Brain Heart Infusion (BHI) broth for each wild type coliforms 1 and 2. Incubate for 24+/−2 hours at 35° C.+/−2° C. • 2. Assume growth to be 10^9 cfu/ml. Since two cultures are being used, combine 5.5 ml of each culture added to 99 ml of cold Butterfield's Phosphate Buffered Water (PBW) to obtain 10^8 cfu/ml. • 3. Plate serial ten-fold dilutions of the culture to get the starting count of the inoculum on Violet Red Bile Agar (VRBA). • 4. Add 1 ml of the diluted cocktail to 100 ml of cold test solution. • 5. Determine the population at time 0 and 4 hours by plating serial dilutions to VRBA spread plates. • 6. Incubate the test solutions at 10° C.+/−2° C. for the duration of the experiment. • 7. Incubate the plates at 20° C.+/−2° C. for 72+/−2 hours. • 8. Count representative colonies and multiply by the dilution factor. Note: Each test solution should contain ˜10^8 cfu/ml.
as §2

[8] = tested on: black mold; assay: “Mold” procedure, black mold; conditions: after 4 hours in blue cheese brine; Table 20; inoculum 2.5 × 10^4 (est)
Procedure: as §4, §5

[9] = tested on: Uncharacterized microorganisms cultured from raw ground beef; assay: Total plate count challenge of 24% NaCl brine with ground beef organisms; conditions: after 4 hours in 24% NaCl brine at −5° C.
Procedure: Tests were run to determine the effectiveness of formulas against organisms other than L. monocytogenes. […] The test solutions were inoculated with the ground beef organism culture and incubated for 4 hours at −5° C. before plating.

[10] = Table 17, (est) = too numerous to count, estimated
[11] = after 4 hours at 10° C. in blue cheese brine, Table 16
[12] = after 4 hours in mozzarella cheese brine, Table 17
[13] = after 4 hours in blue cheese brine, Table 18
[14] = after 4 hours in blue cheese brine, Table 21 (sodium octanoate experiment)
[15] = after 4 hours in mozzarella cheese brine, Table 19
[16] = after 4 hours in blue cheese brine

Compound: CCCCCCCC(=O)O [250 ppm octanoic acid, octanoic acid]
- Coliform count [1, 10]: 1.7 × 10^6 cfu/mL
- Coliform count ([1]; Table 19): 3.8 × 10^3 cfu/mL
- Yeast Cocktail count [2, 11]: <10 cfu/mL
- Yeast Cocktail count [2, 12]: 200 cfu/mL
- White Yeast count [3, 13]: <10 cfu/mL
- White Yeast count [3, 14]: <10 cfu/mL
- White Yeast count [3, 15]: <10 cfu/mL
- “Lactics” count [4]: <10 cfu/mL
- Pink Yeast count [5, 13]: <10 cfu/mL
- Pink Yeast count [5, 14]: <10 cfu/mL
- Pink Yeast count [5, 15]: <10 cfu/mL
- Yeast + Mold count [6, 11]: <10 cfu/mL
- Green Mold + Yeast count [6]: <10 cfu/mL
- Yeast + Mold count [6, 12]: 6.1 × 10^4 cfu/mL
- Coliform count [7, 11]: <10 cfu/mL
- Coliform count [7, 13]: <10 cfu/mL
- Coliforms count [7, 16]: <10 cfu/mL
- Black Mold count [8]: <10 cfu/mL

Compound: CCCCCCCC(=O)O [500 ppm octanoic acid, octanoic acid]
- Coliform count [1, 10]: 3.5 × 10^4 cfu/mL
- Coliform count ([1]; Table 19): 3.8 × 10^3 cfu/mL
- Yeast Cocktail count [2, 11]: <10 cfu/mL
- Yeast Cocktail count [2, 12]: <10 cfu/mL
- White Yeast count [3, 13]: <10 cfu/mL
- White Yeast count [3, 14]: <10 cfu/mL
- White Yeast count [3, 15]: <10 cfu/mL
- “Lactics” count [4]: <1 cfu/mL
- Pink Yeast count [5, 13]: <10 cfu/mL
- Pink Yeast count [5, 14]: <10 cfu/mL
- Pink Yeast count [5, 15]: 20 cfu/mL
- Yeast + Mold count [6, 11]: <10 cfu/mL
- Green Mold + Yeast count [6]: <10 cfu/mL
- Yeast + Mold count [6, 12]: 5.6 × 10^3 cfu/mL
- Coliform count [7, 11]: <10 cfu/mL
- Coliform count [7, 13]: <10 cfu/mL
- Coliforms count [7, 16]: <10 cfu/mL
- Black Mold count [8]: <10 cfu/mL

Compound: CCCCCCCC(=O)O [62.5 ppm octanoic acid, octanoic acid]
- White Yeast count [3, 14]: 90 cfu/mL
- “Lactics” count [4]: 1.5 × 10^5 cfu/mL
- Pink Yeast count [5, 14]: <10 cfu/mL
- Green Mold + Yeast count [6]: 1.0 × 10^4 cfu/mL
- Coliforms count [7, 16]: 3.8 × 10^4 cfu/mL
- Black Mold count [8]: <10 cfu/mL

Compound: CCCCCCCC(=O)O [125 ppm octanoic acid, octanoic acid]
- Coliform count [1, 10]: ~3.0 × 10^6 (est) cfu/mL
- Coliform count ([1]; Table 19): 1.6 × 10^4 cfu/mL
- Yeast Cocktail count [2, 11]: <10 cfu/mL
- Yeast Cocktail count [2, 12]: 6.0 × 10^3 cfu/mL
- White Yeast count [3, 13]: <10 cfu/mL
- White Yeast count [3, 14]: <10 cfu/mL
- White Yeast count [3, 15]: 60 cfu/mL
- “Lactics” count [4]: 2.0 × 10^3 cfu/mL
- Pink Yeast count [5, 13]: <10 cfu/mL
- Pink Yeast count [5, 14]: <10 cfu/mL
- Pink Yeast count [5, 15]: <10 cfu/mL
- Yeast + Mold count [6, 11]: 20 cfu/mL
- Green Mold + Yeast count [6]: <10 cfu/mL
- Yeast + Mold count [6, 12]: 4.1 × 10^5 cfu/mL
- Coliform count [7, 11]: 10 cfu/mL
- Coliform count [7, 13]: <10 cfu/mL
- Coliforms count [7, 16]: <10 cfu/mL
- Black Mold count [8]: <10 cfu/mL

Compound: decyl alcohol ethoxylate, POE-6 [800 ppm decyl alcohol ethoxylate, POE-6]
- Total plate count [9]: 10 cfu/mL
